Source: paper PMC7070382, “Cannabidiol Protects Dopaminergic Neurons in Mesencephalic Cultures against the Complex I Inhibitor Rotenone Via Modulation of Heme Oxygenase Activity and Bilirubin” (Antioxidants, 2020)

Legend:
heme oxygenase (HO) [1] = system: T1, heme oxygenase (HO); assay: in vitro HO activity (hemin to bilirubin, spectrophotometric) in cell homogenate; Lineweaver-Burk kinetics; assay type: biochemical
T1 construct: gene Hmox1; endogenous enzyme in J774A.1 cell homogenate; isoform not specified

heme oxygenase (HO) [2] = system: T1, heme oxygenase (HO); assay: in vitro HO activity (hemin to bilirubin, spectrophotometric) in cell homogenate; assay type: biochemical

| SMILES | IC50 (heme oxygenase (HO) [1]) | IC50 (heme oxygenase (HO) [2]) |
| --- | --- | --- |
| C=C(C)[C@@H]1CCC(C)=C[C@H]1c1c(O)cc(CCCCC)cc1O [CBD, cannabidiol] | 30 µM |  |
| CCCCCc1cc(O)c2c(c1)OC(C)(C)[C@@H]1CCC(C)=C[C@@H]21 [THC, tetrahydrocannabinol] |  | 56 µM |
